In publication PMC4381330, “Identification of a novel selective agonist of PPARγ with no promotion of adipogenesis and less inhibition of osteoblastogenesis” (Scientific Reports, 2015):

Columns and labels:
[1] = target: T1, human PPARγ-LBD (Homo sapiens, UniProt P37231); test: GAL4-PPARγ-LBD luciferase reporter gene assay in HEK293T cells; assay type: cell-based
T1 construct: expressed in transfected cells; host or cells: HEK293T
T1 sequence (P37231 172-476 isoform P37231-2): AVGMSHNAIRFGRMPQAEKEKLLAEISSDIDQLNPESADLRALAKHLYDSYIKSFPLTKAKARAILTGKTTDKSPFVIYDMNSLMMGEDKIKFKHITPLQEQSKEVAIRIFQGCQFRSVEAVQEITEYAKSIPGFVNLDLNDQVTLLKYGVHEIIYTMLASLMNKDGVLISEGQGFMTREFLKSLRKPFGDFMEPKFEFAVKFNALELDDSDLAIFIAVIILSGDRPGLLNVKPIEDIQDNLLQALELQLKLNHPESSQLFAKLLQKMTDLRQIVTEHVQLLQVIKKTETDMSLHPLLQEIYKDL
Method: (§1) The determination of nuclear receptor activation was performed as previously. Briefly, HEK293T cells were transfected with GAL4-pGL4-luc reporter plasmid and pBIND-PPARγ-LBD expression plasmid using Lipofectamine 2000 (Invitrogen) for 6 h before treatment with compounds for 20–24 h. Activity was determined by the Luciferase Assay System (Promega).

[2] = system: MC3T3-E1 preosteoblasts; test: Osteoblastic differentiation of MC3T3-E1 cells (Alizarin red S, Alp activity); assay type: cell-based; details: F12016 1, 10, 30 μM
Method: MC3T3-E1 cells were cultured in α-MEM to confluency in 24-well plates and then cultured in differentiation medium (α-MEM supplemented with 200 μM ascorbic acid and 10 mM β-glycerophosphate) for 7, 14, and 21 days, which was replaced every 3 days. The cells were treated with DMSO, rosiglitazone, or F12016 at the start of differentiation. At day 8, 15 and 22, total RNA was isolated, and real-time PCR was performed as described below.
Mature osteoblasts were stained with Alizarin red S and Alp activity were measured at day 22. In brief, cells were fixed with 75% ethanol and stained with 40 mM Alizarin red S solution (pH 4.1–4.3) for 10 min. For Alp assay, the cells were harvested and sonicated on ice with two 30s-pulses. Supernatant of lysate was incubated with isopyknic 1.0 mg/ml pNPP (Sigma–aldrich) solution (1 M diethanolamine buffer, 0.5 mM magnesium chloride) for 30 min at 37°C. The reaction was measured at 405 nm. Relative ALP activity was normalized to the protein concentration.

[3] = target: T2, LXRα (Homo sapiens, UniProt Q13133); test: Receptor-specific transactivation, GAL4-LBD reporter in HEK293T cells; assay type: cell-based; details: 30 μM F12016
T2 construct: expressed in transfected cells; host or cells: HEK293T
T2 sequence (Q13133 209-447 limits assumed): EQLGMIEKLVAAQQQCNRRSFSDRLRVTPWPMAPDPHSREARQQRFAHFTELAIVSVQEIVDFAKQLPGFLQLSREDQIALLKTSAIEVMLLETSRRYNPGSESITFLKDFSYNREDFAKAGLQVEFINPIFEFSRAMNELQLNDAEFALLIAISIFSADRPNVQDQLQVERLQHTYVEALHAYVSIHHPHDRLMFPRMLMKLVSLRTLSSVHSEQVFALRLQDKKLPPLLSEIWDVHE
Method: HEK293T cells were cotransfected with a GAL4-pGL4-luc reporter and plasmids encoding various nuclear receptor LBDs fused with the GAL4 DNA-binding domain. […] LXR, liver X receptor; RXR, retinoid X receptor.
as §1

[4] = system: 3T3-L1 adipocytes; test: 2-NBDG glucose uptake assay in mature 3T3-L1 adipocytes; assay type: cell-based, mouse; details: 1, 10, 30 μM, 24 h, 0.05 nM insulin, vs DMSO
Method: Glucose uptake activity was determined by measuring the uptake of 2-NBDG (2-(N-(7-nitrobenz-2-oxa-1, 3-diazol-4-yl)amino)-2-deoxyglucose, Invitrogen). […] Glucose uptake was initiated by addition of 1 mM 2-NBDG diluted in PBS. After 1 h, it was terminated by removing the contents of the wells and washing the cells with PBS. The glucose uptake was quantified by measuring the fluorescence intensity of cell lysates (prepared with neutral lysis buffer) at 485 nm excitation and 528 nm emission, and normalized to the corresponding protein content.

[5] = target: T3, CDK5-mediated phosphorylation of PPARγ at Ser273 (Homo sapiens, UniProt P37231); test: In vitro CDK5 assay of the PPARγ LBD (western blot); assay type: biochemical; details: to a similar extent as rosiglitazone
T3 construct: 0.5 μg purified PPARγ-LBD protein was incubated with 50 ng CDK5/p25 kinase (Millipore); Millipore (CDK5/p25 only)
T3 sequence (P37231 238-503 limits assumed): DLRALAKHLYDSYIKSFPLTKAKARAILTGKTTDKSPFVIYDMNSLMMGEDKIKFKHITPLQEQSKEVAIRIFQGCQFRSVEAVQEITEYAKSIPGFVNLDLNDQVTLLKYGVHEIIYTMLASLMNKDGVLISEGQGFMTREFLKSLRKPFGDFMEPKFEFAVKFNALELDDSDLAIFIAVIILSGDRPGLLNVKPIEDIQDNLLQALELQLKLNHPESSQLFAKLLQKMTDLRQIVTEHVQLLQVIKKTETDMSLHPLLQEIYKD
Method: The in vitro CDK assay was performed as described previously. Briefly, 0.5 μg purified PPARγ-LBD protein was incubated with 50 ng CDK5/p25 kinase (Millipore) in CDK assay buffer (Cell Signaling Technology, Danvers, MA, USA), followed by addition of 50 μM ATP and incubation for 30 min at room temperature. PPARγ-LBD was pre-incubated with test compounds for 30 min before performing the reaction. Phosphorylation of PPARγ Ser273 was analyzed by western blotting with an anti-CDK substrate antibody to detect phosphor-serine in the consensus motif for CDK substrate proteins (K/R-S-P-K/R) (Cell Signaling Technology).

[6] = system: 3T3-L1 preadipocytes; test: Adipogenic differentiation of 3T3-L1 preadipocytes (Oil red O, triglyceride content); assay type: cell-based, mouse
Method: 3T3-L1 preadipocytes were grown to confluency in DMEM containing 10% CS. At 2 days post-confluency, the cells were stimulated with differentiation medium (DMEM containing 10% FBS, 10 μg/mL insulin, 1 μM dexamethasone, and 0.5 mM IBMX) for 48 h. Then, the cells were exposed in post-differentiation-maintaining medium (DMEM containing 10% FBS and 10 μg/mL insulin) for a further 48 h, which was replaced with expansion medium (DMEM containing 10% FBS) every 2 days after then. Compounds were added to the post-differentiation and expansion medium. At day 4, the cells were harvested for RNA preparation. At Day 8, the cells were fixed with 10% formaldehyde and stained with Oil red O solution. After washing with water, photos were taken. Solubilized dye was quantified at 550 nm. In addition, total triglyceride of the cells was measured by a total TG measurement kit (Applygene, China). Experiments were performed at least three times.

In the case of “2-[2-(1, 2-dimethyl-1H-indol-3-yl)-2-oxo-acetylamino]-benzamide [Compound F12016]”, the “transcriptional activity of PPARγ” value ([1]; 30 μM F12016, HEK293T) is reported as “significantly induced transcriptional activity of PPARγ”, the “maximal activation of GAL4-PPARγ” value ([1]; HEK293T, GAL4-PPARγ-LBD reporter) is reported as “approximately 4 fold” and the EC50 ([1]; HEK293T, GAL4-PPARγ-LBD reporter, read-out: PPARγ WT EC50 (activation of GAL4-PPARγ)) is reported as 3.24 µM. The “PPARγ WT (RGZ %)” value ([1]; activation relative to rosiglitazone (RGZ)) was 29.08%, the “concentration antagonizing rosiglitazone-dependent PPARγ activation” value ([1]; in presence of 1 μM rosiglitazone, reporter assay) was at least 2.5 µM and the “alkaline phosphatase (Alp) activity” value [2] was “less reductions in mineralization and Alp activity”. For the same substance, the “mineralization (Alizarin Red S)” value [2] was “less reductions in mineralization”, the “transactivation of LXRα” value [3] was “no effects” and the “insulin-stimulated glucose uptake (2-NBDG)” value [4] was “enhanced the insulin-stimulated glucose uptake”. For the same substance, the “CDK5-mediated phosphorylation of PPARγ” value [5] was “effectively blocked CDK5-mediated phosphorylation of PPARγ”, the “intracellular triglyceride (TG) content” value ([6]; 6 days of stimulation) was “significantly reduced TG accumulation compared with rosiglitazone” and the “TG content of differentiating adipocytes at 30 μM compared with 10 μM” value ([6]; F12016 30 μM vs 10 μM) was “significantly less than that of 10 μM”. The “lipid accumulation / intracellular lipid droplets (Oil red O staining)” value ([6]; RGZ 0.1, 1, 10 μM, F12016 1, 10, 30 μM) was “significantly reduced potency to form intracellular lipid droplets” and the “lipid droplet size, F12016 vs rosiglitazone” value ([6]; supplementary Figure 2) was “no significant difference”.
